Measurements: patent US4285956A, “Xanthene and thioxanthene derivatives, compositions thereof and treatment therewith” (priority 1978, dated 1981)
“Also recorded” adds a separate entry of the source.

Key:
[1] = Amphetamine antagonism (stereotypy in rats); format: in vivo; details: Rattus norvegicus
[2] = Neuroleptic effect: duration and strength (remarks of Table 2); format: in vivo; details: for Duration (remarks, words): duration of neuroleptic effect; for Duration (remarks, words) / Strength of effect (remarks, words): in words; for Strength of effect (remarks, words): strength of neuroleptic effect
Excerpt: The pharmacological testing of the novel xanthones and thioxanthenes of Formula I consisted of standard and reliable tests. […]

[3] = Catalepsy wire mesh, rat, max.; format: in vivo, rats; details: for ED50: Rattus norvegicus, sc, read-out: Catalepsy wire mesh, rat, max. ED50
Experimental: Catalepsy wire mesh, rat, max. (ED50 mg/kg s.c.)
A vertical wire netting (50 cm×49 cm). The meshes (openings) of the netting are square (1 cm×1 cm). The wire diameter is 2 mm. Stop watch. Rats, male, 180-200 g.
The animals are labeled and used in groups of five. The test substance is injected subcutaneously (s.c.) (5 ml/kg) at 4 dose levels selected from the fixed dose scale.
The animals are placed in the middle of the vertical wire netting 60, 120, 180, 240, 300 and 360 minutes after injection of the test compound. The animals are considered cataleptic when they remain immobile during a period of 15 seconds. This cataleptic reaction is designated +. If the rats are "atonic" and passively slide down the wire mesh they are considered not cataleptic. If the animals climb up and down the wire mesh they are nor cataleptic. In both situations the designation - is used.

[4] = Methylphenidate antagonism (mice biting corrugated paper); format: in vivo; details: Mus musculus, ip
Experimental: Methylphenidate antagonism (ED50 mg/kg i.p.)
Perspex observation cages without bottom and lid, consisting of 5 sections each measuring 12×25×30 cm. White corrugated paper. Mice, male, 18-25 g.
The test substance is given i.p. in the doses 0, 1/8, 1/32 and 1/128 of the determined "i.p. LD50". 3×2 mice are used for each dose level. Two or 24 hours after injection of test substance, methylphenidate, 60 mg/kg, is injected s.c. After administration of methylphenidate the mice are placed in the observation cages, 2 in each cage, where they remain for exactly 1 hour. The cages are placed on corrugated paper, the corrugations facing upwards. It is examined whether the mice have been biting the corrugated paper or not. […] If one or more of the control pairs have not been biting, the test has to be repeated on a new set of mice.
The result is stated in fractions: 0/3, 1/3, 2/3 and 3/3 where 0, 1, 2 and 3 are the number of pairs which have not been biting on receipt of the dose in question.
The results are calculated as the dose (ED50), which causes antagonism in 50% of the test animals.

[5] = Acute toxicity, LD50 in male rats following peroral administration; format: in vivo; details: for LD50 at 168 h: rat, in vivo, po, male rats, p.o., one week after administration, read-out: LD50 p.o. in male rats after 1 week
Experimental: The acute toxicity, as measured by LD50 in male rats following peroral administration, is much lower for Lu 13-135 when compared with piflutixol one week after administration. The figure for Lu 13-135 is >60 mg/kg against 1.5 mg/kg for piflutixol.

[6] = Catalepsy wire mesh, rat, max.; format: in vivo; details: po, rats
[7] = Sedation; details: in words; for b551 compared with piflutixol
[8] = mice, i.p., methylphenidate 60 mg/kg s.c. 2 h after test substance, read-out: Methylphenidate antagonism ED50, 2 h
[9] = mice, i.p., methylphenidate 60 mg/kg s.c. 24 h after test substance, read-out: Methylphenidate antagonism ED50, 24 h

SMILES	ED50 ([1]; ip, 24 h, read-out: Amphetamine antagonism ED50) [mg/kg]	Duration (remarks, words) [2]	Strength of effect (remarks, words) [2]	ED50 ([3]; rats, s.c., strongest effect within first 6 hours) [mg/kg]	Cataleptic activity ([3]; in words)	ED50 [4, 8] [mg/kg]	ED50 [4, 9] [mg/kg]	Acute toxicity ([5]; in words, compared with related thioxanthenes (b9) or piflutixol)	LD50 at 168 h [5] [mg/kg]	ED50 ([1]; po, read-out: Amphetamine antagonism ED50, p.o.) [mg/kg]	ED50 [6] [mg/kg]	Sedation / sedative effect [7]	Duration ([2]; remarks column, hours) [h]	ED50 ([3]; 6 h) [mg/kg]	ED50 ([4]; 2 h, read-out: Methylphenidate antagonism ED50, 2 h) [mg/kg]	ED50 ([4]; 24 h, read-out: Methylphenidate antagonism ED50, 24 h) [mg/kg]
O[C@H]1CC[C@H](CN2CCC(=C3c4ccc(F)cc4Sc4ccc(C(F)(F)F)cc43)CC2)CC1 [Lu 13-135, 1-(trans-4-hydroxycyclohexylmethyl)-4-(2-trifluoromethyl-6-fluoro-9-thioxanthenyliden)-piperidine]	0.32	very long acting; also recorded: long acting	strong; also recorded: very strong	0.4	have a cataleptic activity	0.32	0.19	much lower	> 60	–	–	–	–	–	–	–
CS(=O)(=O)N[C@H]1CC[C@H](CN2CCC(=C3c4ccc(F)cc4Sc4ccc(C(F)(F)F)cc43)CC2)CC1 [Lu 16-049]	–	long acting	moderately strong	–	–	1	0.49	–	–	2.5	1.7	–	–	–	–	–
OCCC1CCN(CC/C=C2/c3ccc(F)cc3Sc3ccc(C(F)(F)F)cc32)CC1 [piflutixol, 2-trifluoromethyl-6-fluoro-9-(3-(4-(2-hydroxyethyl)-1-piperidyl)propylidene)-thioxanthene, reference compound]	–	most long acting	most patent	–	–	–	–	–	1.5	–	–	very strong sedative effects	48 to 72	0.05	0.03	0.03
